Source: EP3156398A1, “AGONISTS OF THE CHEMOKINE RECEPTOR CXCR3” (Friedrich-Alexander-Universität Erlangen-Nürnberg, priority 2015, dated 2017)

Columns and labels:
CXCR3 = target: T1, CXCR3 (Homo sapiens, UniProt P49682); assay: β-arrestin 2 recruitment with concomitant incubation of FAUC1036 and chemokine; assay type: cell-based
T1 construct: expressed in transfected cells; host or cells: HEK293 / HEK293T cells, stably transfected; membrane preparations
T1 sequence (P49682 1-368): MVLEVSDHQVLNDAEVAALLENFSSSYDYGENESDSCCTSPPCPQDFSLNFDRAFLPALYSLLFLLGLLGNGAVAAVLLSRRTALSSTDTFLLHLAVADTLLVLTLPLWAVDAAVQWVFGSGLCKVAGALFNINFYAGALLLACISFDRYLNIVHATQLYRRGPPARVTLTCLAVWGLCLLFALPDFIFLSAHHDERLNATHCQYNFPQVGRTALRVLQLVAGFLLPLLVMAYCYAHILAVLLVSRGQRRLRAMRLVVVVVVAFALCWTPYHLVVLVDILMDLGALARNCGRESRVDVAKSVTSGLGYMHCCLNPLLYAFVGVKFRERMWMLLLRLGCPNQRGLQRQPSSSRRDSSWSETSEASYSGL
Description: β-arrestin 2 recruitment assay: The measurement of β-arrestin recruitment was performed utilizing the PathHunter assay purchased from DiscoveRx (DiscoveRx, Birmingham, U.K.) according to the manufacturer's protocol. HEK293 cells stably expressing β-gal enzyme acceptor were transiently transfected with the ProLink (PK1) tagged wildtype CXCR3 receptor using the TransIT-293 transfection reagent from Mirus (purchased from MoBiTec, Goettingen, Germany). The assay was carried out in 384-well plates containing 2000 cells in 20 µL. After incubation at 37°C (5% CO2, 95% relative humidity) overnight, various concentrations of test compounds or CXCL11 (prepared in PBS, pH 7.4, containing 0.20% BSA) were added and the incubation continued for 4 h. Detection mix was then added and incubated for further 60 min at room temperature. Chemiluminescence was determined with a microplate reader Clariostar (BMG labtech, Ortenberg, Germany).
The effect of the β-arrestin 2 biased allosteric agonist FAUC1036 on the CXCL11 and CXCL10-induced β-arrestin 2 recruitment was estimated in a series of experiments where the HEK293T cells expressing CXCR3 were concomitantly incubated with FAUC1036 and chemokines CXCL11 or CXCL10 (Figure 3). […] These observations imply that FAUC1036 behaves as a functional negative allosteric modulator (NAM) in the presence of endogenous agonists in the β-arrestin 2 pathway.

CXCR3-PK2 = target: T2, CXCR3-PK2 (Homo sapiens, UniProt P49682); assay: β-arrestin 2 recruitment assay (PathHunter, DiscoveRx), CXCR3-PK2 construct; assay type: cell-based; settings: CXCR3-PK2; for CXCR3-PK2 pEC50 ± SEM: HEK293-T cells, PathHunter
T2 construct: expressed in transfected cells
T2 sequence (P49682 1-368): T1 sequence (P49682 1-368)
Summary of the method: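 HEK293 cells stably expressing the β-gal enzyme acceptor were transiently transfected with ProLink-tagged CXCR3 and cultured overnight at 37 °C. Compounds or CXCL11, in PBS pH 7.4 with 0.20% BSA, were added for 4 h, followed by detection mix for 60 min at room temperature. Recruitment was read as chemiluminescence from enzyme fragment complementation.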

human CXCR3 (isoform 1) = target: T3, human CXCR3 (isoform 1) (Homo sapiens, UniProt P49682); assay: [125I]CXCL11 radioligand displacement assay; assay type: binding
T3 construct: expressed in transfected cells; host or cells: COS-7 cells, transient (pcDNA3.1+ vector, calcium phosphate)
T3 sequence (P49682 1-368): T1 sequence (P49682 1-368)
Description: [^125I]CXCL11 radioligand displacement assay: Oxidative iodination. The CXCL11 protein (purchased from PeproTech as the mature form of isoform 1) was labeled in-house with the ^125I isotope (purchased from Perkin-Elmer, in 10 µM NaOH, pH 8-11) using the Chloramine-T method^36. CXCL11 was dissolved in 300 mM phosphate buffer, and 0.4 mCi ^125I was added to 0.6 nmol (10 µl) of the protein. 30 µl phosphate buffer supplemented with 30 mgl^-1 Chloramine-T was added slowly over a 5 min period while stirring, and the reaction was quenched by adding 400 µl H2O with 0.1% trifluoroacetic acid (TFA). The product was purified by reverse-phase HPLC, using a C18 column and a gradient from H2O with 0.1% TFA (buffer A) to acetonitrile with 0.1% TFA (buffer B). After allowing the passage of 8 mL flow-through at 20 % buffer B, CXCL11 is eluted by increasing buffer B to 50 % over a flow-volume of 40 mL, after which any possible remains of protein are eluted by further increasing buffer B to 80 % across 10 mL flow-through. The flow-through is collected in 1 mL aliquots, and the radioligand is identified in those aliquots by gamma radiation intensity, and verified with a preliminary competitive binding assay setup.
Cell culture and transfection,. Cos-7 cells expressing human CXCR3 (isoform 1) were used for binding assays. […]

Compound: CC(C)(C)OC(=O)N[C@@H](CCCCNC(=O)[C@@H]1Cc2ccccc2CN1C(=O)CCC(=O)c1ccccc1)C(=O)NCC(c1ccccc1)c1ccccc1 [Compound 11, Tert-butyl ((S)-1-((2,2-diphenylethyl)amino)-1-oxo-6-((S)-2-(4-oxo-4-phenylbutanoyl)-1,2,3,4-tertahydroisoquinoline-3-carboxamido)hexan-2-yl)carbamate]
- influence on the efficacy of CXCL10-induced β-arrestin 2 recruitment (CXCR3; in the presence of CXCL10 (Figure 3B)): noticeable effect on the efficacy
- influence on the efficacy of CXCL11-induced β-arrestin 2 recruitment (CXCR3; in the presence of CXCL11 (Figure 3A)): had not influence on the efficacy
- CXCR3-PK2 efficacy (%) (CXCR3-PK2; % of CXCL11 mediated effect, listed as 11/FAUC103 6): 66±8%
- Emax (CXCR3-PK2; % of CXCL11 mediated effect, read-out: CXCR3-PK2 efficacy (%) (converted)): 66%
- CXCR3-PK2 pEC50 ± SEM (CXCR3-PK2; listed as 11/FAUC103 6): 6.58±0.30
- CXCR3-PK2 pEC50 ± SEM (CXCR3-PK2; listed as FAUC1036): 6.64 ± 0.30
- effect on the binding affinity of CXCL11 on CXCR3 (human CXCR3 (isoform 1)): no effect on the binding affinity of CXCL11 on CXCR3
